# Measured values as given in patent US9321757B2, “Heterocyclic compound” (Takeda Pharmaceutical Company Limited, priority 2013, dated 2016).
# Experiments:
# NC1-induced nephritis = format: in vivo, rat
# Description: 8-Week-old female WKY rats (Japan Charles River Laboratories) were used as 7 rats/group. Bovine NC1 (The non-collagenous domain of α3 chain of type IV collagen, Chondrex, inc) was dissolved in phosphate buffer to adjust the concentration to 0.3 mg/mL. The equal amount of complete Freund's adjuvant (H37 Ra, Diffco) was added thereto to give an emulsion. The emulsion (0.2 mL) was inoculated intracutaneously into the rat tail head (the 0 day). The compound was orally administered for 5 weeks (the 0 to 35th day, twice a day). 0.5% Methyl cellulose (5 mL/kg) was orally administered as a control. The urine was collected for 4 hr on the −1st day (Pre value) and the 35th day. The collected urine was centrifuged at 400 G, for 5 min at 4° C., the supernatant was kept at −80° C., and the amounts of creatinine and protein were measured. The body weight was measured on the 0th day and the 35th day. A comparison between the groups was analyzed by Dunnett test, and p≦0.05 was evaluated as a significance level.
# [1] = test system: tumor necrosis factor (TNFα) production in the serum; experiment: R848 Tolerance Test in Rat; format: in vivo; settings: Lewis rat serum 1 hr after R848 i.p., mean ± S.E.
# Description: 6-Week-old male LEW/CrlCrlj (Lewis) rats (Japane Charles River Laboratories) were used as 8 rats/group. R848 (Enzo Life Sciences) was dissolved in dimethyl sulfoxide (500 mM), and the concentration of solution was adjusted to 300 μM with saline, and 1.0 mL thereof was intraperitoneally administered in the rat. The compound was orally administered 1 hr before R848 administration. 0.5% Methyl cellulose (5 mL/kg) was orally administered as a control. The blood was collected from the abdominal aorta 1 hr after R848 administration. The blood was left overnight at 4° C., and the serum was collected by centrifugation. The amount of the tumor necrosis factor (TNFα) production in the serum was measured by […] TNF-alpha Quantikine ELISA Kit (R&D Systems). Shirley-Williams test was used for a dose-dependent manner, and p≦0.05 was evaluated as a significance level.
# IRAK-4 = molecular target: T1, IRAK-4 (Homo sapiens, UniProt Q9NWZ3); experiment: IRAK-4 Enzyme Inhibition Test (LANCE method); format: biochemical; settings: compound concentration 1 μM; well without enzyme = 100% inhibition; read-out: IRAK4 enzyme inhibitory rate (%) at 1 μM
# T1 construct: purchased Carna Biosciences, Inc
# T1 sequence (Q9NWZ3 1-460): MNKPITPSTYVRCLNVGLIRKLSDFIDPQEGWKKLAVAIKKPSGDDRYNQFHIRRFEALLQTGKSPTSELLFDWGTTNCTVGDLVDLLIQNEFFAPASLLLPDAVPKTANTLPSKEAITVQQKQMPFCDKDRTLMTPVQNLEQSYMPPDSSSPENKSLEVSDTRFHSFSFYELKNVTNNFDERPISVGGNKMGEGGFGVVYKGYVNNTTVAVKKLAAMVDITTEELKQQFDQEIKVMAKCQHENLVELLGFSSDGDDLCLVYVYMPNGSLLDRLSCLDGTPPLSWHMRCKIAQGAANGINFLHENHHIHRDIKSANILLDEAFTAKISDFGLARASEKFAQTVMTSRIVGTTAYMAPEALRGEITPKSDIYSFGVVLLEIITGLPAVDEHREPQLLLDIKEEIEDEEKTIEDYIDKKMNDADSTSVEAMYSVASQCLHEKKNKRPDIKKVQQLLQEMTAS
# Description: IRAK-4 enzyme inhibitory activities of test compounds were measured by LANCE method (PerkinElmer). First, a test compound diluted with assay buffer (50 mM HEPES (pH7.5), 10 mM MgCl2, 1 mM EGTA, 2 mM DTT, 0.01% Tween 20, 0.01% BSA) was added to 384-well plate at 2 μL each. Then, IRAK-4 (Carna Biosciences, Inc.) and a fluorescence-labeled peptide substrate (ULight-ACC peptide, PerkinElmer) solution diluted with assay buffer at 240 ng/mL and 37.5 nM, respectively were added at 2 μL each. Then, enzyme reaction was started by adding 2 μL each of ATP solution prepared with assay buffer at 1.5 mM. After the reaction at room temperature for 1 hr, Detection Buffer (PerkinElmer) prepared to be 20 mM EDTA, 1 nM europium-labeled anti-phospho ACC antibody (PerkinElmer) was added at 6 μL each. After standing at room temperature for 1 hr, fluorescence intensity (excitation wavelength 340 nm, fluorescence wavelength 665 nm, delay time 100 microseconds) was measured by a plate reader, Envision (PerkinElmer). The inhibitory activity of each compound was calculated as relative value where fluorescence intensity of a well without enzyme is considered as 100% inhibition.
structure (smiles),measurement,setting,value
"Cn1cc(NC(=O)c2coc(-c3ccnc(NCC(F)(F)F)c3)n2)c(N2CCN(CCO)C2=O)n1 [Example 57, N-(3-(3-(2-hydroxyethyl)-2-oxoimidazolidin-1-yl)-1-methyl-1H-pyrazol-4-yl)-2-(2-((2,2,2-trifluoroethyl)amino)pyridin-4-yl)-1,3-oxazole-4-carboxamide]","Proteinuria (mg/mg Cre 4 hr), Pre (−1st day)","NC1-induced nephritis; WKY rat, 3 mg/kg group, Pre value (−1st day, before immunisation and dosing), mean ± S.E.",0.32 ± 0.05 mg/mg Cre 4 hr
same,"Proteinuria (mg/mg Cre 4 hr), 35th day","NC1-induced nephritis; WKY rat, 3 mg/kg orally twice a day, 0 to 35th day, mean ± S.E., p ≦ 0.05 vs. Control 31.7 ± 4.26",18.1 ± 2.43 mg/mg Cre 4 hr
same,Body weight difference from the 0th day on the 35th day (g),"NC1-induced nephritis; rat, in vivo, po, 3 mg/kg",+63.7 ± 2.8 g
same,TNFα production amount,"[1]; 0.3 mg/kg orally 1 hr before R848, Control 1090 ± 137",1349 ± 181 pg/mL
same,TNFα production amount,"[1]; 1 mg/kg orally 1 hr before R848, Control 1090 ± 137",736 ± 76.2 pg/mL
same,TNFα production amount,"[1]; 3 mg/kg orally 1 hr before R848, p ≦ 0.05 vs. Control 1090 ± 137",306 ± 45.9 pg/mL
same,TNFα production amount,"[1]; 10 mg/kg orally 1 hr before R848, p ≦ 0.05 vs. Control 1090 ± 137",236 ± 26.8 pg/mL
same,inhibition at 1 µM,IRAK-4,100%
"Cn1cc(NC(=O)c2coc(-c3ccnc(NCC(F)(F)F)c3)n2)c(N2CCNC2=O)n1 [Example 58, N-(1-methyl-3-(2-oxoimidazolidin-1-yl)-1H-pyrazol-4-yl)-2-(2-((2,2,2-trifluoroethyl)amino)pyridin-4-yl)-1,3-oxazole-4-carboxamide]",TNFα production amount,"[1]; 0.27 mg/kg orally 1 hr before R848, Control 945 ± 106",1070 ± 160 pg/mL
same,TNFα production amount,"[1]; 0.91 mg/kg orally 1 hr before R848, Control 945 ± 106",804 ± 116 pg/mL
same,TNFα production amount,"[1]; 2.73 mg/kg orally 1 hr before R848, Control 945 ± 106",628 ± 31.1 pg/mL
same,TNFα production amount,"[1]; 9.09 mg/kg orally 1 hr before R848, p ≦ 0.05 vs. Control 945 ± 106",326 ± 41.1 pg/mL
same,inhibition at 1 µM,IRAK-4,99%
"Cn1cc(NC(=O)c2cccc(N3CC4(CCNC4)NC3=O)n2)c(N2CCC(C)(C)C2=O)n1 (stereo not drawn) [Example 206, N-(3-(3,3-dimethyl-2-oxopyrrolidin-1-yl)-1-methyl-1H-pyrazol-4-yl)-6-(2-oxo-1,3,7-triazaspiro[4.4]non-3-yl)pyridine-2-carboxamide]",inhibition at 1 µM,IRAK-4,100%
"CN1CCN(c2nn(C)cc2NC(=O)c2cccc(N3CC4(CCNC4)NC3=O)n2)C1=O (stereo not drawn) [Example 215, N-(1-methyl-3-(3-methyl-2-oxoimidazolidin-1-yl)-1H-pyrazol-4-yl)-6-(2-oxo-1,3,7-triazaspiro[4.4]non-3-yl)pyridine-2-carboxamide]",inhibition at 1 µM,IRAK-4,100%
